According to ChEMBL document CHEMBL4229410, “Facile construction of fused benzimidazole-isoquinolinones that induce cell-cycle arrest and apoptosis in colorectal cancer cells” (Bioorg Med Chem, 2018):
The source made the active and inactive calls. The rule behind the calls is not given here.

Experiments:
[1] = tested on: SW-620; assay: Cell cycle arrest in human SW620 cells assessed as accumulation at G1-phase at 25 uM after 48 hrs by propidium iodide staining based flow cytometry (reference value: 40.56%); type: functional
[2] = tested on: SW-620; assay: Cell cycle arrest in human SW620 cells assessed as accumulation at S-phase at 25 uM after 48 hrs by propidium iodide staining based flow cytometry (reference value: 43.72%); type: functional
[3] = tested on: HT-29; assay: Cell cycle arrest in human HT-29 cells assessed as accumulation at G2-phase at 75 uM after 48 hrs by propidium iodide staining based flow cytometry (reference value: 15.45%); type: functional
[4] = tested on: SW-620; assay: Cell cycle arrest in human SW620 cells assessed as increase in accumulation at G2/M-phase after 48 hrs by propidium iodide staining based flow cytometry; type: functional
[5] = tested on: SW-620; assay: Induction of apoptosis in human SW620 cells assessed as late apoptotic cells at 50 uM after 48 hrs by Annexin-V-FITC/propidium iodide staining based flow cytometry (reference value: 1.2%); type: functional
[6] = tested on: HT-29; assay: Induction of apoptosis in human HT-29 cells after 48 hrs by Annexin-V-FITC/propidium iodide staining based flow cytometry; type: functional, cell-based
[7] = tested on: SW-620; assay: Induction of apoptosis in human SW620 cells assessed as reduction in BCL2 expression after 48 hrs by Western blot analysis; type: functional, cell-based
[8] = tested on: HT-29; assay: Inhibition of PI3K in human HT-29 cells assessed as reduction in AKT phosphorylation at S473 residue up to 75 uM after 48 hrs by Western blot analysis; type: cell-based
[9] = tested on: HT-29; assay: Inhibition of PI3K/AKT signaling pathway in human HT-29 cells assessed as reduction in mTOR phosphorylation up to 75 uM after 48 hrs by Western blot analysis; type: cell-based
[10] = tested on: Tyrosine-protein kinase ABL1 (Homo sapiens), P00519 [E255K]; assay: Inhibition of human phosphorylated ABL1 E255K mutant (S229 to K512 residues) expressed in mammalian expression system assessed as residual activity at 5 uM by KINOMEscan assay relative to control
[11] = target: Aurora kinase A (Homo sapiens) (UniProt O14965); assay: Inhibition of human AURKA (E122 to K401 residues) expressed in mammalian expression system assessed as residual activity at 5 uM by KINOMEscan assay relative to control
[12] = tested on: Serine/threonine-protein kinase B-raf (Homo sapiens), P15056 [V600E]; assay: Inhibition of human BRAF (S429 to E741 residues) V600E mutant expressed in mammalian expression system assessed as residual activity at 5 uM by KINOMEscan assay relative to control
Chain of Serine/threonine-protein kinase B-raf (Homo sapiens), P15056 [V600E] (P15056 whole entry V600E, the tested form may be a part): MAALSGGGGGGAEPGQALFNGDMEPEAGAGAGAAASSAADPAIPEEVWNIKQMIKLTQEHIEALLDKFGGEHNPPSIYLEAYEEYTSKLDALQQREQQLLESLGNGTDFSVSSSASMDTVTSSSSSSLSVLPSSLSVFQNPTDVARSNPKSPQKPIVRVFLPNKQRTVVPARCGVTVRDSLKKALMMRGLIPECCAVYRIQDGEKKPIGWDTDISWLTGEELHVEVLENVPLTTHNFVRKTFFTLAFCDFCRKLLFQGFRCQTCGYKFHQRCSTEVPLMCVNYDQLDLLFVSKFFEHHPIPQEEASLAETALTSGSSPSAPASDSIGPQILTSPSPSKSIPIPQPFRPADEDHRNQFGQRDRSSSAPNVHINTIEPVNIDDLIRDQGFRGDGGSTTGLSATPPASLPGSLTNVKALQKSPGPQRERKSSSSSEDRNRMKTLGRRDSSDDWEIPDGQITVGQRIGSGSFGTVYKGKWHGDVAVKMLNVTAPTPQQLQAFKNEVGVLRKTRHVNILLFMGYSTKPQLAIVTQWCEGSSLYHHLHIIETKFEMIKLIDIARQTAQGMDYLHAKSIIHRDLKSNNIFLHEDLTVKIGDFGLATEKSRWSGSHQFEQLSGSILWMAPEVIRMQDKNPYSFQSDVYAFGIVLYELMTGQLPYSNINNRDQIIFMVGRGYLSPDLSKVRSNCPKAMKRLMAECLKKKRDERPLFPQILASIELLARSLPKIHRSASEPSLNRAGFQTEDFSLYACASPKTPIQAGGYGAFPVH

[13] = target: Mitogen-activated protein kinase 3 (Homo sapiens, UniProt P27361); assay: Inhibition of full length human ERK1 (M1 to P379 residues) expressed in bacterial expression system assessed as residual activity at 5 uM by KINOMEscan assay relative to control
[14] = target: Fibroblast growth factor receptor 3 (Homo sapiens, UniProt P22607); assay: Inhibition of partial length human FGFR3 (R442 to S771 residues) expressed in bacterial expression system assessed as residual activity at 5 uM by KINOMEscan assay relative to control
Chain of Fibroblast growth factor receptor 3 (P22607 23-806 limits assumed): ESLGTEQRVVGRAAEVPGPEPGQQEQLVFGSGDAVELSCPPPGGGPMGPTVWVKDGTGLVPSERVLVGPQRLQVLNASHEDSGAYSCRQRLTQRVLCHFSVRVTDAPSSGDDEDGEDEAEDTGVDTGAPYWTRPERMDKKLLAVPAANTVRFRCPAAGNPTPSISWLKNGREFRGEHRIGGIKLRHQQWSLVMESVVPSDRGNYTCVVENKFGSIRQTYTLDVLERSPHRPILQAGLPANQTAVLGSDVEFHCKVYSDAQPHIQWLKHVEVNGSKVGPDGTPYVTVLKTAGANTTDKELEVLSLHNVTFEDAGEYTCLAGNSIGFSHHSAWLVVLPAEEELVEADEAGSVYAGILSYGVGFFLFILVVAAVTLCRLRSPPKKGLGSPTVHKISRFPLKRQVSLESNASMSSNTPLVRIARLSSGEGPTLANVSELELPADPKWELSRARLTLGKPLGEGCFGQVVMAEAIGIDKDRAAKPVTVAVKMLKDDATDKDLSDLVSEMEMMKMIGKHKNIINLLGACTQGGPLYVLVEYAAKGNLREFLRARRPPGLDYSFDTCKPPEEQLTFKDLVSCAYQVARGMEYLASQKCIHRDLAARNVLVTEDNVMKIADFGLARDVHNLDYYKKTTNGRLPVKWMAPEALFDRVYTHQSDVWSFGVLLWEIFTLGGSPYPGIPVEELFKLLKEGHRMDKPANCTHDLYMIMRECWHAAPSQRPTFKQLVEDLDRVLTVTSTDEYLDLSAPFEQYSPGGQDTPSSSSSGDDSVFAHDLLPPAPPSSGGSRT

[15] = target: Insulin receptor (Homo sapiens, UniProt P06213); assay: Inhibition of human INSR (P997 to E1318 residues) expressed in mammalian expression system assessed as residual activity at 5 uM by KINOMEscan assay relative to control
[16] = target: Mast/stem cell growth factor receptor Kit (Homo sapiens, UniProt P10721); assay: Inhibition of human KIT (I571 to D952 residues) expressed in bacterial expression system assessed as residual activity at 5 uM by KINOMEscan assay relative to control
[17] = target: Mitogen-activated protein kinase kinase kinase 4 (Homo sapiens, UniProt Q9Y6R4); assay: Inhibition of human MAP3K4 (G1319 to E1608 residues) expressed in bacterial expression system assessed as residual activity at 5 uM by KINOMEscan assay relative to control
[18] = target: Hepatocyte growth factor receptor (Homo sapiens, UniProt P08581); assay: Inhibition of human MET (D1010 to S1367 residues) expressed in bacterial expression system assessed as residual activity at 5 uM by KINOMEscan assay relative to control
[19] = target: MAP kinase-interacting serine/threonine-protein kinase 2 (Homo sapiens, UniProt Q9HBH9); assay: Inhibition of human MKNK2 (G63 to S388 residues) expressed in mammalian expression system assessed as residual activity at 5 uM by KINOMEscan assay relative to control
Chain of MAP kinase-interacting serine/threonine-protein kinase 2 (Q9HBH9 whole entry, looked up, the tested form may be a part): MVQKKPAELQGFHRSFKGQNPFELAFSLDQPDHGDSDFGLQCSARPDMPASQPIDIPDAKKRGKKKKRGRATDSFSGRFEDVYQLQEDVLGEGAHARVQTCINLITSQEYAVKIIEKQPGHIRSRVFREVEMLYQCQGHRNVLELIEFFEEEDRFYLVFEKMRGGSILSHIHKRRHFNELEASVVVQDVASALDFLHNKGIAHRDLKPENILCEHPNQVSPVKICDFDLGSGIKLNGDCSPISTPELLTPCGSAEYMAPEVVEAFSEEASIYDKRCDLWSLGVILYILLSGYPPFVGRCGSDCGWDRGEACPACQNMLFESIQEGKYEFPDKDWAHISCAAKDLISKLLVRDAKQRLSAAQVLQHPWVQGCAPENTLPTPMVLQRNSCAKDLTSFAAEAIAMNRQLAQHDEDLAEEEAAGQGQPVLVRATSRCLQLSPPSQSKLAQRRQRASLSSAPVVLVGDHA

[20] = target: Serine/threonine-protein kinase pim-3 (Homo sapiens, UniProt Q86V86); assay: Inhibition of human PIM3 (G16 to A317 residues) expressed in bacterial expression system assessed as residual activity at 5 uM by KINOMEscan assay relative to control
[21] = target: Aurora kinase A (Homo sapiens, UniProt O14965); assay: Binding affinity to human AURKA (E122 to K401 residues) expressed in mammalian expression system by KINOMEscan assay
[22] = target: Serine/threonine-protein kinase B-raf (Homo sapiens, UniProt P15056, V600E); assay: Binding affinity to human BRAF (S429 to E741 residues) V600E mutant expressed in mammalian expression system by KINOMEscan assay
Chain of Serine/threonine-protein kinase B-raf (P15056 2-766 V600E limits assumed): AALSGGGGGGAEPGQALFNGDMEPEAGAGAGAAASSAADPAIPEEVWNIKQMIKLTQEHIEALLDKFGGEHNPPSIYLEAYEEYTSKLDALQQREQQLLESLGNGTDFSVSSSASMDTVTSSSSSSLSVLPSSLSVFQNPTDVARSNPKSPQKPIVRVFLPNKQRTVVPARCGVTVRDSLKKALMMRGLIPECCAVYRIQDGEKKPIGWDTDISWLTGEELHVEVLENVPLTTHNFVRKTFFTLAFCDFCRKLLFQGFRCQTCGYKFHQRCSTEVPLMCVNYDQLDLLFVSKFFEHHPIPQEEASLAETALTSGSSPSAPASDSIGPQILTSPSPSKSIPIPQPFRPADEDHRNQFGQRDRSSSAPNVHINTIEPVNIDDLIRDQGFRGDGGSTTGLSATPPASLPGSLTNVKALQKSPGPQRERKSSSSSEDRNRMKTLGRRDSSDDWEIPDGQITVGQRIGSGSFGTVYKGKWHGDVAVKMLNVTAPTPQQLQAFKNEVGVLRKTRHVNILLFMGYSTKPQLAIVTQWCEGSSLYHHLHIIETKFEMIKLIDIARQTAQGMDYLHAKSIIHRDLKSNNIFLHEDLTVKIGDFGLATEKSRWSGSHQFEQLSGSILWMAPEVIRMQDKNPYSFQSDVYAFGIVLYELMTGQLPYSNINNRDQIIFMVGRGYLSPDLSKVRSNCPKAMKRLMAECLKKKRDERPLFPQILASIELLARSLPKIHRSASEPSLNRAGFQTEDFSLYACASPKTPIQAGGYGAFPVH

[23] = target: Cyclin-dependent kinase 9 (Homo sapiens, UniProt P50750); assay: Binding affinity to full length human CDK9 (M1 to F372 residues) expressed in bacterial expression system by KINOMEscan assay
Chain of Cyclin-dependent kinase 9 (P50750 whole entry, the tested form may be a part): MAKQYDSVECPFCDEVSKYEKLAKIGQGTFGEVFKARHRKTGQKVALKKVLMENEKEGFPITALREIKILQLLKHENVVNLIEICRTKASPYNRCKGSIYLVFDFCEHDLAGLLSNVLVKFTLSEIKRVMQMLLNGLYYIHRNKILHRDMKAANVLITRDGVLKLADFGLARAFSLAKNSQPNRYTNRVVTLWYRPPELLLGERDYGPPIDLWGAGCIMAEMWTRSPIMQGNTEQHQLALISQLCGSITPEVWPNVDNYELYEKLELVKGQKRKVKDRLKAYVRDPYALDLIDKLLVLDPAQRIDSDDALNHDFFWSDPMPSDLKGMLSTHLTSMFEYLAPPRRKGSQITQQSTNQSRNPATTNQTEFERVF

[24] = target: Serine/threonine-protein kinase Chk1 (Homo sapiens, UniProt O14757); assay: Binding affinity to human CHEK1 (M1 to G289 residues) expressed in bacterial expression system by KINOMEscan assay
Chain of Serine/threonine-protein kinase Chk1 (O14757 whole entry, the tested form may be a part, canonical isoform): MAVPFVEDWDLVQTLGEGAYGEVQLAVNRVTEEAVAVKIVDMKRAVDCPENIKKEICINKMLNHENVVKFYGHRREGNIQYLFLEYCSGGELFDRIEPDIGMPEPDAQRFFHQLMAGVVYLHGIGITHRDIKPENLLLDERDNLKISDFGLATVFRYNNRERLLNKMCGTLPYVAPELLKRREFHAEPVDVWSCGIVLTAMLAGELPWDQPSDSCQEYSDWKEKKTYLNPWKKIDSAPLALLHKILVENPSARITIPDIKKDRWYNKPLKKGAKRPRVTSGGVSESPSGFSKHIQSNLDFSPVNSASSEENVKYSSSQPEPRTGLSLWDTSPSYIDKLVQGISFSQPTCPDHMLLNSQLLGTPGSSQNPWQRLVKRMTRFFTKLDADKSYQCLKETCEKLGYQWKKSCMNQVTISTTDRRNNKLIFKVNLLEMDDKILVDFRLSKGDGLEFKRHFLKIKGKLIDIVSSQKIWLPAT

[25] = target: Casein kinase I isoform gamma-2 (Homo sapiens, UniProt P78368); assay: Binding affinity to full length human CSNK1G2 (M1 to K415 residues) expressed in bacterial expression system by KINOMEscan assay
Chain of Casein kinase I isoform gamma-2 (P78368 whole entry, the tested form may be a part, canonical isoform): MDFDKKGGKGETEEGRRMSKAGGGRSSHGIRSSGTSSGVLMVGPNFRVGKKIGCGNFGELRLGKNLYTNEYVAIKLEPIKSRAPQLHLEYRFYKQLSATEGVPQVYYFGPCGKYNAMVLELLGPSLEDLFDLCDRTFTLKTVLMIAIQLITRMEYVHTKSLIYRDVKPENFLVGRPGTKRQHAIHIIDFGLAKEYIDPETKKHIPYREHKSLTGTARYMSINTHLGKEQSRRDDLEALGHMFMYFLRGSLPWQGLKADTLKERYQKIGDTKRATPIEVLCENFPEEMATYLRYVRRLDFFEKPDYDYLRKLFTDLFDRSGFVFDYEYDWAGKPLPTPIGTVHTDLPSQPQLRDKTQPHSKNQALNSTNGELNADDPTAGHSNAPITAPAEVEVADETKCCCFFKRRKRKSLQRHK

[26] = target: Inhibitor of nuclear factor kappa-B kinase subunit alpha (Homo sapiens, UniProt O15111); assay: Binding affinity to full length human IKKalpha (M1 to E745 residues) expressed in mammalian expression system by KINOMEscan assay
[27] = target: Tyrosine-protein kinase JAK3 (Homo sapiens, UniProt P52333); assay: Binding affinity to human JAK3 JH1 catalytic domain (I781 to S1124 residues) expressed in mammalian expression system by KINOMEscan assay
[28] = target: Platelet-derived growth factor receptor alpha (Homo sapiens, UniProt P16234); assay: Binding affinity to human PDGFRA (V575 to D1002 residues) expressed in mammalian expression system by KINOMEscan assay
[29] = target: Proto-oncogene tyrosine-protein kinase receptor Ret (Homo sapiens, UniProt P07949); assay: Binding affinity to human RET (E713 to D1014 residues) expressed in bacterial expression system by KINOMEscan assay
[30] = target: Tyrosine-protein kinase ZAP-70 (Homo sapiens, UniProt P43403); assay: Binding affinity to human ZAP70 (D20 to G299 residues) expressed in mammalian expression system by KINOMEscan assay
Chain of Tyrosine-protein kinase ZAP-70 (P43403 whole entry, the tested form may be a part): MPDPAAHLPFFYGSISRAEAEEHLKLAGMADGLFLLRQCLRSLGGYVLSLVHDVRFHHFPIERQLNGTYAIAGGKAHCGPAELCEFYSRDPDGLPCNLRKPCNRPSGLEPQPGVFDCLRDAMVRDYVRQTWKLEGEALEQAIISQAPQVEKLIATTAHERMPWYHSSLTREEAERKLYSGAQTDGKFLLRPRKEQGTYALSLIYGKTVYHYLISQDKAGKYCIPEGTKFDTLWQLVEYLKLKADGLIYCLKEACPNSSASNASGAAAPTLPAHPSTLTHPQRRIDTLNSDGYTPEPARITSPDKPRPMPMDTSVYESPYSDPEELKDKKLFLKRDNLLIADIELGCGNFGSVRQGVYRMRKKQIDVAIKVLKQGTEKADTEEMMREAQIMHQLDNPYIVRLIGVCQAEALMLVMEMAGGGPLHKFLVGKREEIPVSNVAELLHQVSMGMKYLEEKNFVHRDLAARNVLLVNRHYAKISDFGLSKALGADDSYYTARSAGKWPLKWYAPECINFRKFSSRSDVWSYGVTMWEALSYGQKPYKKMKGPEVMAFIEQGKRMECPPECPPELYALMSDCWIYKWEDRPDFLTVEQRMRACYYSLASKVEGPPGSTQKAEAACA

Structure (SMILES): CC(C)CN(C(=O)c1cccnc1)c1c2ccccc2c(=O)n2c1[nH]c1ccccc12
- Activity [1]: 39.26%
- Activity [2]: 43.71%
- Activity [3]: 21.78%
- Activity [4]: Dose-dependent effect
- Activity [5]: 12.1%
- Activity [6]: Dose-dependent effect
- Activity [7]: Dose-dependent effect
- inhibition [8]: Active
- inhibition [9]: Active
- Activity [10]: 69%
- Activity [11]: 100%
- Activity [12]: 100%
- Activity [13]: 82%
- Activity [14]: 80%
- Activity [15]: 100%
- Activity [16]: 93%
- Activity [17]: 91%
- Activity [18]: 86%
- Activity [19]: 92%
- Activity [20]: 100%
- Kd [21]: ≥ 5 µM
- Kd [22]: ≥ 5 µM
- Kd [23]: ≥ 5 µM
- Kd [24]: ≥ 5 µM
- Kd [25]: ≥ 5 µM
- Kd [26]: ≥ 5 µM
- Kd [27]: ≥ 5 µM
- Kd [28]: ≥ 5 µM
- Kd [29]: ≥ 5 µM
- Kd [30]: ≥ 5 µM
